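Results reflect a 48-hour exposure of cells in 96-well plates to compound at five concentrations. GI50 is the concentration that inhibits growth by half.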 Activity calls are given as the source filed them. Cut-off read from the data, not from the text of the source: active = GI50 up to about 1.1 µM and inactive = higher.
How the values were obtained:
Assay in all cases: NCI tumour cell line growth inhibition, 48 h
M19-MEL = system: M19-MEL
LXFL 529 = system: LXFL 529
HOP-18 = system: HOP-18
DMS-273 = system: DMS-273
RXF 631 = system: RXF 631
KM-20L2 = system: KM-20L2
XF498 = system: XF498
MDA-N = system: MDA-N
BT-549 = system: BT-549

Measured: GI50

COc1cc(/C=N/c2nncs2)ccc1O
inactive: M19-MEL > 100 µM | LXFL 529 > 100 µM | HOP-18 > 100 µM | DMS-273 > 100 µM | RXF 631 > 100 µM | KM-20L2 > 100 µM | XF498 > 100 µM

COC(=O)C(CC=O)C(=O)C(=O)Nc1cccc(C(F)(F)F)c1 (stereo unspecified)
inactive: M19-MEL > 100 µM | LXFL 529 > 100 µM | HOP-18 > 100 µM | RXF 631 > 100 µM | KM-20L2 > 100 µM | XF498 > 100 µM

CC(C)(C)c1ccc(Oc2ccc(C#N)c(C#N)c2)c(C(C)(C)C)c1
inactive: LXFL 529 31.2 µM | HOP-18 > 100 µM | DMS-273 15.2 µM | RXF 631 > 60.3 µM | KM-20L2 44 µM | XF498 12.6 µM

Cn1c(CCC#N)nc2ccc(Br)cc2c1=O
inactive: LXFL 529 > 100 µM | RXF 631 > 100 µM | KM-20L2 > 100 µM | XF498 > 100 µM

COC(=O)c1c(OC)cccc1C(=O)O
inactive: M19-MEL > 100 µM | LXFL 529 > 100 µM | HOP-18 > 100 µM | DMS-273 > 100 µM | RXF 631 > 100 µM | KM-20L2 > 100 µM

O=S1(=O)OCCOS(=O)(=O)C1I
inactive: M19-MEL > 100 µM | LXFL 529 > 100 µM | DMS-273 > 100 µM | RXF 631 > 100 µM | XF498 > 100 µM

Cc1cc(O)c2c(c1)C(O)(c1ccc3c(c1O)C(=O)c1c(O)cc(C)cc1C3(O)C1OC(CO)C(O)C(O)C1O)c1cccc(O)c1C2=O (stereo unspecified)
inactive: M19-MEL 12.2 µM | LXFL 529 11.9 µM | HOP-18 5.06 µM | DMS-273 15.1 µM | RXF 631 16 µM | KM-20L2 18.6 µM | XF498 5.08 µM

N#CC(/C(=N\NC(N)=S)C(=O)NC1C2CC3CC(C2)CC1C3)c1ccc(Cl)cc1 (stereo unspecified)
inactive: M19-MEL > 100 µM | LXFL 529 > 100 µM | HOP-18 > 100 µM | DMS-273 > 100 µM | RXF 631 > 100 µM | KM-20L2 > 100 µM | XF498 > 100 µM

Cc1cccc(C)c1NC(=O)C(=O)C1C(=O)NC(=O)NC1=O
inactive: M19-MEL > 100 µM | LXFL 529 > 100 µM | HOP-18 > 100 µM | DMS-273 > 100 µM | RXF 631 > 100 µM | KM-20L2 > 100 µM | XF498 > 100 µM

CCCNCc1nc2ccc(Br)cc2c(=O)n1CCC
inactive: M19-MEL 13.2 µM | LXFL 529 12.6 µM | HOP-18 18.1 µM | DMS-273 12.4 µM | RXF 631 7.05 µM | KM-20L2 19.2 µM | XF498 16.9 µM

CCC(=O)N1C(=O)OCC1C(C)C (stereo unspecified)
inactive: M19-MEL > 100 µM | LXFL 529 > 100 µM | HOP-18 15.8 µM | DMS-273 > 100 µM | RXF 631 > 100 µM | KM-20L2 > 100 µM | XF498 > 100 µM

CC(=O)/C(C)=N/NC(=O)c1ccccc1O
inactive: M19-MEL > 10 µM | LXFL 529 > 10 µM | HOP-18 > 10 µM | DMS-273 > 10 µM | RXF 631 > 10 µM | MDA-N > 100 µM | KM-20L2 > 10 µM | XF498 > 10 µM | BT-549 > 100 µM

COc1cc2c(cc1O)[C@H](Cc1ccc(Oc3cc(C[C@H]4c5cc(OC)c(OC)cc5CCN4C)ccc3OC)cc1)NCC2
inactive: M19-MEL 22.6 µM | LXFL 529 13.7 µM | HOP-18 17.1 µM | DMS-273 19.5 µM | RXF 631 15.5 µM | KM-20L2 10.1 µM | XF498 11.2 µM

CN1OC2OC(=O)OC2[C@H]1[C@H]1O[C@H](c2ccccc2)OC1(C)c1cc(OC(=O)c2ccccc2)ccc1OC(=O)c1ccccc1 (stereo partly specified)
inactive: M19-MEL > 50 µM | LXFL 529 > 50 µM | DMS-273 > 50 µM | RXF 631 > 50 µM | KM-20L2 > 50 µM | XF498 > 50 µM
